Measured values from PubChem BioAssay (NCI).
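Test compounds were applied to cells in 96-well plates for 48 hours at 5 doses. GI50 is the concentration that inhibits growth by half. Definition used: TGI = concentration required for complete inhibition of growth.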

What was measured:
Assay in all cases: NCI-60 cell line screen, 48 h; in the data active = GI50 below about 0.43 µM; inactive = the rest
786-0 renal = test system: 786-0 renal
A498 renal = test system: A498 renal
A549 NSCLC = test system: A549 NSCLC
ACHN renal = test system: ACHN renal
BT-549 breast = test system: BT-549 breast
CAKI-1 renal = test system: CAKI-1 renal
CCRF-CEM leukemia = test system: CCRF-CEM leukemia
COLO 205 colon = test system: COLO 205 colon
DU-145 prostate = test system: DU-145 prostate
EKVX NSCLC = test system: EKVX NSCLC
HCC-2998 colon = test system: HCC-2998 colon
HCT-116 colon = test system: HCT-116 colon
HCT-15 colon = test system: HCT-15 colon
HL-60(TB) leukemia = test system: HL-60(TB) leukemia
HOP-62 NSCLC = test system: HOP-62 NSCLC
HOP-92 NSCLC = test system: HOP-92 NSCLC
HS 578T breast = test system: HS 578T breast
HT29 colon = test system: HT29 colon
IGROV1 ovarian = test system: IGROV1 ovarian
K-562 leukemia = test system: K-562 leukemia
KM12 colon = test system: KM12 colon
LOX IMVI melanoma = test system: LOX IMVI melanoma
M14 melanoma = test system: M14 melanoma
MALME-3M melanoma = test system: MALME-3M melanoma
MCF7 breast = test system: MCF7 breast
MDA-MB-231 breast = test system: MDA-MB-231 breast
MDA-MB-435 = test system: MDA-MB-435
MOLT-4 leukemia = test system: MOLT-4 leukemia
NCI-H226 lung = test system: NCI-H226 lung
NCI-H23 lung = test system: NCI-H23 lung
NCI-H460 lung = test system: NCI-H460 lung
NCI-H522 lung = test system: NCI-H522 lung
NCI/ADR-RES ovarian = test system: NCI/ADR-RES ovarian
OVCAR-3 ovarian = test system: OVCAR-3 ovarian
OVCAR-4 ovarian = test system: OVCAR-4 ovarian
OVCAR-5 ovarian = test system: OVCAR-5 ovarian
OVCAR-8 ovarian = test system: OVCAR-8 ovarian
PC-3 prostate = test system: PC-3 prostate
RPMI-8226 leukemia = test system: RPMI-8226 leukemia
RXF 393 renal = test system: RXF 393 renal
SF-268 CNS = test system: SF-268 CNS
SF-295 CNS = test system: SF-295 CNS
SF-539 CNS = test system: SF-539 CNS
SK-MEL-2 melanoma = test system: SK-MEL-2 melanoma
SK-MEL-28 melanoma = test system: SK-MEL-28 melanoma
SK-MEL-5 melanoma = test system: SK-MEL-5 melanoma
SK-OV-3 ovarian = test system: SK-OV-3 ovarian
SN12C renal = test system: SN12C renal
SNB-19 CNS = test system: SNB-19 CNS
SNB-75 CNS = test system: SNB-75 CNS
SR leukemia = test system: SR leukemia
SW-620 colon = test system: SW-620 colon
T-47D breast = test system: T-47D breast
TK-10 renal = test system: TK-10 renal
U251 CNS = test system: U251 CNS
UACC-257 melanoma = test system: UACC-257 melanoma
UACC-62 melanoma = test system: UACC-62 melanoma
UO-31 renal = test system: UO-31 renal

COc1ccc(-n2cc(-c3ccc(F)cc3)[nH]c2=O)cc1OC
inactive: GI50 (786-0 renal) > 100 µM | GI50 (A498 renal) > 100 µM | GI50 (A549 NSCLC) > 100 µM | GI50 (ACHN renal) > 100 µM | GI50 (BT-549 breast) > 100 µM | GI50 (CAKI-1 renal) > 100 µM | GI50 (CCRF-CEM leukemia) 18.2 µM | GI50 (COLO 205 colon) > 100 µM | GI50 (DU-145 prostate) > 100 µM | GI50 (EKVX NSCLC) > 100 µM | GI50 (HCC-2998 colon) > 100 µM | GI50 (HCT-116 colon) > 100 µM | GI50 (HCT-15 colon) > 100 µM | GI50 (HL-60(TB) leukemia) > 100 µM | GI50 (HOP-62 NSCLC) 54.7 µM | GI50 (HOP-92 NSCLC) 79.1 µM | GI50 (HS 578T breast) 98.9 µM | GI50 (HT29 colon) > 100 µM | GI50 (IGROV1 ovarian) > 100 µM | GI50 (K-562 leukemia) 7.5 µM | GI50 (KM12 colon) > 100 µM | GI50 (LOX IMVI melanoma) > 100 µM | GI50 (M14 melanoma) > 100 µM | GI50 (MALME-3M melanoma) > 100 µM | GI50 (MCF7 breast) > 100 µM | GI50 (MDA-MB-231 breast) > 100 µM | GI50 (MDA-MB-435) > 100 µM | GI50 (MOLT-4 leukemia) > 100 µM | GI50 (NCI-H226 lung) > 100 µM | GI50 (NCI-H23 lung) > 100 µM | GI50 (NCI-H460 lung) > 100 µM | GI50 (NCI-H522 lung) > 100 µM | GI50 (NCI/ADR-RES ovarian) > 100 µM | GI50 (OVCAR-3 ovarian) > 100 µM | GI50 (OVCAR-4 ovarian) > 100 µM | GI50 (OVCAR-5 ovarian) > 100 µM | GI50 (OVCAR-8 ovarian) 82.1 µM | GI50 (PC-3 prostate) > 100 µM | GI50 (RPMI-8226 leukemia) > 100 µM | GI50 (RXF 393 renal) > 100 µM | GI50 (SF-268 CNS) > 100 µM | GI50 (SF-295 CNS) > 100 µM | GI50 (SF-539 CNS) 82.2 µM | GI50 (SK-MEL-2 melanoma) > 100 µM | GI50 (SK-MEL-28 melanoma) > 100 µM | GI50 (SK-MEL-5 melanoma) > 100 µM | GI50 (SK-OV-3 ovarian) > 100 µM | GI50 (SN12C renal) 58 µM | GI50 (SNB-19 CNS) > 100 µM | GI50 (SNB-75 CNS) > 100 µM | GI50 (SR leukemia) > 100 µM | GI50 (SW-620 colon) > 100 µM | GI50 (T-47D breast) > 100 µM | GI50 (TK-10 renal) > 100 µM | GI50 (U251 CNS) > 100 µM | GI50 (UACC-257 melanoma) > 100 µM | GI50 (UACC-62 melanoma) > 100 µM | GI50 (UO-31 renal) > 100 µM
34.3 µM: TGI (CCRF-CEM leukemia)
> 100 µM: TGI (786-0 renal) | TGI (A498 renal) | TGI (A549 NSCLC) | TGI (ACHN renal) | TGI (BT-549 breast) | TGI (CAKI-1 renal) | TGI (COLO 205 colon) | TGI (DU-145 prostate) | TGI (EKVX NSCLC) | TGI (HCC-2998 colon) | TGI (HCT-116 colon) | TGI (HCT-15 colon) | TGI (HL-60(TB) leukemia) | TGI (HOP-62 NSCLC) | TGI (HOP-92 NSCLC) | TGI (HS 578T breast) | TGI (HT29 colon) | TGI (IGROV1 ovarian) | TGI (K-562 leukemia) | TGI (KM12 colon) | TGI (LOX IMVI melanoma) | TGI (M14 melanoma) | TGI (MALME-3M melanoma) | TGI (MCF7 breast) | TGI (MDA-MB-231 breast) | TGI (MDA-MB-435) | TGI (MOLT-4 leukemia) | TGI (NCI-H226 lung) | TGI (NCI-H23 lung) | TGI (NCI-H460 lung) | TGI (NCI-H522 lung) | TGI (NCI/ADR-RES ovarian) | TGI (OVCAR-3 ovarian) | TGI (OVCAR-4 ovarian) | TGI (OVCAR-5 ovarian) | TGI (OVCAR-8 ovarian) | TGI (PC-3 prostate) | TGI (RPMI-8226 leukemia) | TGI (RXF 393 renal) | TGI (SF-268 CNS) | TGI (SF-295 CNS) | TGI (SF-539 CNS) | TGI (SK-MEL-2 melanoma) | TGI (SK-MEL-28 melanoma) | TGI (SK-MEL-5 melanoma) | TGI (SK-OV-3 ovarian) | TGI (SN12C renal) | TGI (SNB-19 CNS) | TGI (SNB-75 CNS) | TGI (SR leukemia) | TGI (SW-620 colon) | TGI (T-47D breast) | TGI (TK-10 renal) | TGI (U251 CNS) | TGI (UACC-257 melanoma) | TGI (UACC-62 melanoma) | TGI (UO-31 renal)
